Reference: patent publication US11629139B2 (priority 2017, dated 2023)

tested on: vesicular stomatitis virus particles (VSV) pseudotyped with EboV Zaire GP; test: microbe, parasite or virus in culture; type: cell-based; conditions: Vesicular stomatitis virus

`Nc1c(Cl)cc(Cl)cc1CN1CCN(C(=O)CNC(=O)CC2CCC(F)(F)CC2)CC1` [Compound 1381, N-(2-(4-(2-Amino-3,5-dichlorobenzyl)piperazin-1-yl)-2-oxoethyl)-2-(4,4-difluorocyclohexyl)acetamide] and `O=C(CC1CCC(F)(F)CC1)NCC(=O)N1CCN(Cc2cc(Cl)cc(Cl)c2)CC1` [Compound 1383, N-(2-(4-(3,5-dichlorobenzyl)piperazin-1-yl)-2-oxoethyl)-2-(4,4-difluorocyclohexyl)acetamide] cannot be ordered by IC50: over 2000 nM for the first, over 2000 nM for the second.

`COC(=O)c1ccc(COc2ccc([N+](=O)[O-])cc2CN2CCN(C(=O)CNC(=O)CC34CC5CC(CC(C5)C3)C4)CC2)cc1` [Compound 1113] and `COC(=O)c1ccc(COc2ccc(OC)cc2CN2CCN(C(=O)CNC(=O)CC34CC5CC(CC(C5)C3)C4)CC2)cc1` [Compound 1115] cannot be ordered by IC50: under 2000 nM for the first, 1400 nM for the second.

First: O=C(CC12CC3CC(CC(C3)C1)C2)NCC(=O)N1CCN(Cc2cc(Cl)c(F)cc2F)CC1 [Compound 1307, 2-((1R,3R,5S)-Adamantan-1-yl)-N-(2-(4-(5-chloro-2,4-difluorobenzyl)piperazin-1-yl)-2-oxoethyl)acetamide]
Second: N#Cc1cc(Br)cc(CN2CCN(C(=O)CNC(=O)CC34CC5CC(CC(C5)C3)C4)CC2)c1 [Compound 1348, 2-((1R,3R,5S)-Adamantan-1-yl)-N-(2-(4-(3-bromo-5-cyanobenzyl)piperazin-1-yl)-2-oxoethyl)acetamide]
The IC50 of the first is 3.5-fold lower: 370 nM for the first, 1300 nM for the second. The first is the more potent here.

First: CNC(=O)c1ccc(COc2ccccc2CN2CCN(C(=O)CNC(=O)CC34CC5CC(CC(C5)C3)C4)CC2)cc1 [Compound 1801]
Second: CNS(=O)(=O)c1ccc(COc2ccccc2CN2CCN(C(=O)CNC(=O)CC34CC5CC(CC(C5)C3)C4)CC2)cc1 [Compound 1257]
The IC50 of the first is 7-fold higher: 2100 nM for the first, 300 nM for the second. The second is the more potent here.

Compared with `COC(=O)c1ccc(COc2ccccc2C(C)N2CCN(C(=O)CNC(=O)CC34CC5CC(CC(C5)C3)C4)CC2)cc1` (stereo not shown) [Compound 1122], `CS(=O)(=O)c1ccc(COc2ccc(F)cc2CN2CCN(C(=O)CNC(=O)CC34CC5CC(CC(C5)C3)C4)CC2)cc1` [Compound 1443] is 440-fold lower in IC50: about 2000 nM for the first, 4.5 nM for the second.

First: CS(=O)(=O)c1ccc(Oc2cc(Cl)cc(CN3CCN(C(=O)CNC(=O)CC4CCC(F)(F)CC4)CC3)c2)cc1 [Compound 1462]
Second: O=C(CC1CCC(F)(F)CC1)NCC(=O)N1CCN(Cc2cc(Cl)cc(Oc3ccncc3)c2)CC1 [Compound 1432, N-(2-(4-(3-Chloro-5-(pyridin-4-yloxy)benzyl)piperazin-1-yl)-2-oxoethyl)-2-(4,4-difluorocyclohexyl)acetamide]
The IC50 of the first is higher: over 1000 nM for the first, 185 nM for the second.

Compared with `Nc1ccc(Cl)cc1CN1CCN(C(=O)CNC(=O)C2C3CC(F)(F)CC32)CC1` [Compound 1386, (1R,5S,6r)-N-(2-(4-(2-Amino-5-chlorobenzyl)piperazin-1-yl)-2-oxoethyl)-3,3-difluorobicyclo[3.1.0]hexane-6-carboxamide], `Nc1ccc(Cl)cc1CN1CCN(C(=O)CNC(=O)C2CC23CCC3)CC1` (stereo not shown) [Compound 1807, N-(2-(4-(2-Amino-5-chlorobenzyl)piperazin-1-yl)-2-oxoethyl)spiro[2.3]hexane-1-carboxamide] is 1.8-fold lower in IC50: 4400 nM for the first, 2500 nM for the second.

Compared with `COC(=O)c1cccc(Oc2cc(Cl)cc(CN3CCN(C(=O)CNC(=O)CC45CC6CC(CC(C6)C4)C5)CC3)c2)c1` [Compound 1322, Methyl 3-(3-((4-((2-((1R,3R,5S)-adamantan-1-yl)acetyl)glycyl)piperazin-1-yl)methyl)-5-chlorophenoxy)benzoate], `COC(=O)c1cccc(-c2cc(Cl)cc(CN3CCN(C(=O)CNC(=O)CC45CC6CC(C4)C(C6)C5)CC3)c2)c1` [Compound 1441] is 23-fold higher in IC50: 11 nM for the first, 248 nM for the second. The first is the more potent here.

First: O=C(CC1CCC(F)(F)CC1)NCC(=O)N1CCN(Cc2cccc3ncccc23)CC1 [Compound 1428, 2-(4,4-Difluorocyclohexyl)-N-(2-oxo-2-(4-(quinolin-5-ylmethyl)piperazin-1-yl)ethyl)acetamide]
Second: O=C(CC1CCC(F)(F)CC1)NCC(=O)N1CCN(Cc2cc(Cl)ccc2O)CC1 [Compound 1403, N-(2-(4-(5-Chloro-2-hydroxybenzyl)piperazin-1-yl)-2-oxoethyl)-2-(4,4-difluorocyclohexyl)acetamide]
The IC50 of the first is higher: over 5000 nM for the first, 190 to 730 nM for the second. The second is the more potent here.

First: O=C(NCC(=O)N1CCN(Cc2cc(Cl)ccc2O)CC1)C1CC1c1ccc(F)cc1 (stereo not shown) [Compound 1425, N-(2-(4-(5-Chloro-2-hydroxybenzyl)piperazin-1-yl)-2-oxoethyl)-2-(4-fluorophenyl)cyclopropane-1-carboxamide]
Second: O=C(NCC(=O)N1CCN(Cc2cc(Cl)ccc2O)CC1)C1CC12CCC(F)(F)CC2 (stereo not shown) [Compound 1398, N-(2-(4-(5-Chloro-2-hydroxybenzyl)piperazin-1-yl)-2-oxoethyl)-6,6-difluorospiro[2.5]octane-1-carboxamide]
The IC50 of the first is higher: 3400 nM for the first, 75 to 320 nM for the second.

Going from `[2H]C([2H])(c1cc(Cl)ccc1NCc1ccon1)N1CCN(C(=O)CNC(=O)[C@@H]2CC23CCC(F)(F)CC3)CC1` [Compound 1581] to `[2H]C([2H])(c1cc(Cl)ccc1NCc1ccc(F)cn1)N1CCN(C(=O)CNC(=O)[C@@H]2CC23CCC(F)(F)CC3)CC1` [Compound 1582], the IC50 falls from 470 nM to 240 nM (2-fold). The second is the more potent here.

`CNc1ccc(Cl)cc1CN1CCN(C(=O)CNC(=O)C2CC23CCC(F)(F)CC3)CC1` (stereo not shown) [Compound 1391, N-(2-(4-(5-Chloro-2-(methylamino)benzyl)piperazin-1-yl)-2-oxoethyl)-6,6-difluorospiro[2.5]octane-1-carboxamide] and `Nc1c(Cl)cccc1CN1CCN(C(=O)CNC(=O)C2CC23CCC(F)(F)CC3)CC1` (stereo not shown) [Compound 1407, N-(2-(4-(2-Amino-3-chlorobenzyl)piperazin-1-yl)-2-oxoethyl)-6,6-difluorospiro[2.5]octane-1-carboxamide] cannot be ordered by IC50: 80 to 260 nM for the first, 230 to 500 nM for the second.

Compared with `CS(=O)(=O)c1ccc(COc2ccc(F)cc2CN2CCN(C(=O)CNC(=O)CC3CCC(F)(F)CC3)CC2)cc1` [Compound 1455], `Nc1ccc(-c2ccc(F)cc2)cc1CN1CCN(C(=O)CNC(=O)CC2CCC(F)(F)CC2)CC1` [Compound 1359, N-(2-(4-((4-Amino-4′-fluoro-[1,1′-biphenyl]-3-yl)methyl)piperazin-1-yl)-2-oxoethyl)-2-(4,4-difluorocyclohexyl)acetamide] is higher in IC50: 40 nM for the first, over 2000 nM for the second. The first is the more potent here.

Compared with `COC(=O)c1ccc(COc2ccccc2CN2CCN(C(=O)CNC(=O)OC3CCC(F)(F)CC3)CC2)cc1` [Compound 1319, Methyl 4-((2-((4-((((4,4-difluorocyclohexyl)oxy)carbonyl)glycyl)piperazin-1-yl)methyl)phenoxy)methyl)benzoate], `O=C(Cc1cccc2ccccc12)NCC(=O)N1CCN(Cc2ccccc2OCc2ccc(Br)cc2)CC1` [Compound 1136] is higher in IC50: 310 nM for the first, over 2000 nM for the second. The first is the more potent here.

`[2H]C([2H])(c1cc(Cl)ccc1NCc1ccc(S(C)(=O)=O)cc1F)N1CCN(C(=O)CNC(=O)[C@@H]2CC23CCC(F)(F)CC3)CC1` [Compound 1562] showed an IC50 of 13 nM.

same assay, conditions: Vesicular stomatitis virus, read-out: IC50, VSV EBOV infection

Work on `CC(C)c1nc(CN(C)C(=O)N[C@H](C(=O)N[C@@H](Cc2ccccc2)C[C@H](O)[C@H](Cc2ccccc2)NC(=O)OCc2cncs2)C(C)C)cs1` [Ritonavir, reference compound] yielded an IC50 of over 25000 nM.

same assay, conditions: read-out: IC50

`O=C(CC12CC3CC(CC(C3)C1)C2)NCC(=O)N1CCN(Cc2cc(Cl)ccc2C(F)(F)F)CC1` [Compound 1308, 2-((1R,3R,5S)-Adamantan-1-yl)-N-(2-(4-(5-chloro-2-(trifluoromethyl)benzyl)piperazin-1-yl)-2-oxoethyl)acetamide] showed an IC50 of over 2000 nM.
